# Reference: patent US6620831B2, “Indazoles substituted with 1,1-dioxoisothiazolidine useful as inhibitors of cell proliferation” (LG Life Sciences Ltd., priority 2000, dated 2003)
# Molecular target: T1, CDK2/cyclin A (Homo sapiens, UniProt P24941)
# T1 construct: made in house; host or cells: insect ('worm') cells co-infected with baculoviruses
# Assay: CDK2 inhibitory activity (CDK2/cyclin A, [gamma-32P] ATP, histon H1 or Rb protein substrate)
# Assay type: biochemical
# Conditions: first IC50 column (c1) of Table 1
# Excerpt: CDK2 enzyme was obtained from either extract from the worm cell co-infected with baculovirus which expresses a CDK2 gene and baculovirus which expresses a cyclin A gene, or active enzyme purified therefrom. CDK4 was also obtained from either extract from the worm cell co-infected with baculovirus which expresses a CDK4 gene and baculovirus which expresses a cyclin D1 gene. As substrates, histon H1 or Rb protein was used for CDK2, and Rb protein for CDK4. The radioactive activities in substrates were determined by reacting compounds diluted with each concentration with a proper quantity of CDK2/cyclin A or CDK4/cyclin D1 and substrate protein, and [gamma-32P labeled] ATP, and then separating the substrates.
# Inhibitory abilities of inhibitors according to the present invention for each enzyme activity were expressed as IC50 values, which were determined in accordance with the method as described above.
row,IC50 [nM],Compound
1,< 10000,"CN1CCN(CC(=O)Nc2n[nH]c3ccc(N4CCCS4(=O)=O)cc23)CC1 [Compound 30, N-[5-(1,1-dioxo-1λ^6-isothiazolidin-2-yl)-1H-indazol-3-yl]-2-(4-methyl-1-piperazinyl)acetamide]"
2,< 10000,"O=C(CN1CCOCC1)Nc1n[nH]c2ccc(N3CCCS3(=O)=O)cc12 [Compound 31, N-[5-(1,1-dioxo-1λ^6-isothiazolidin-2-yl)-1H-indazol-3-yl]-2-(4-morpholinyl)acetamide]"
3,< 10000,"O=C(CN1CCCCC1)Nc1n[nH]c2ccc(N3CCCS3(=O)=O)cc12 [Compound 32, N-[5-(1,1-dioxo-1λ^6-isothiazolidin-2-yl)-1H-indazol-3-yl]-2-(1-piperidinyl)acetamide]"
4,< 50,"O=C(Cc1ccc(-c2ccncc2)cc1)Nc1n[nH]c2ccc(N3CCCS3(=O)=O)cc12 [Compound 33, N-[5-(1,1-dioxo-1λ^6-isothiazolidin-2-yl)-1H-indazol-3-yl]-2-[4-(4-pyridinyl)phenyl]acetamide]"
5,< 100,"O=C(Cc1ccc(N2CCOCC2)cc1)Nc1n[nH]c2ccc(N3CCCS3(=O)=O)cc12 [Compound 35, N-[5-(1,1-dioxo-1λ^6-isothiazolidin-2-yl)-1H-indazol-3-yl]-2-[4-(1-morpholinyl)phenyl]acetamide]"
6,< 50,"O=C(Cc1ccc(-c2ccsc2)cc1)Nc1n[nH]c2ccc(N3CCCS3(=O)=O)cc12 [Compound 36, N-[5-(1,1-dioxo-1λ^6-isothiazolidin-2-yl)-1H-indazol-3-yl]-2-[4-(3-thienyl)phenyl]acetamide]"
7,< 100,"O=C(Cc1ccc(S(=O)(=O)N2CCOCC2)cc1)Nc1n[nH]c2ccc(N3CCCS3(=O)=O)cc12 [Compound 37, N-[5-(1,1-dioxo-1λ^6-isothiazolidin-2-yl)-1H-indazol-3-yl]-2-[4-(4-morpholinylsulfonyl)phenyl]acetamide]"
8,< 100,"COc1ccc(CC(=O)Nc2n[nH]c3ccc(N4CCCS4(=O)=O)cc23)cc1 [Compound 38, N-[5-(1,1-dioxo-1λ^6-isothiazolidin-2-yl)-1H-indazol-3-yl]-2-(4-methoxyphenyl)acetamide]"
9,< 50,"O=C(Cc1ccc(-c2ccco2)cc1)Nc1n[nH]c2ccc(N3CCCS3(=O)=O)cc12 [Compound 39, N-[5-(1,1-dioxo-1λ^6-isothiazolidin-2-yl)-1H-indazol-3-yl]-2-[4-(2-furyl)phenyl]acetamide]"
10,< 1000,"CN1CCN(S(=O)(=O)c2ccc(CC(=O)Nc3n[nH]c4ccc(N5CCCS5(=O)=O)cc34)cc2)CC1 [Compound 40, N-[5-(1,1-dioxo-1λ^6-isothiazolidin-2-yl)-1H-indazol-3-yl]-2-4-[(4-methyl-1-piperazinyl)sulfonyl]phenylacetamide]"
11,< 50,"O=C(Cn1cnc2ccccc21)Nc1n[nH]c2ccc(N3CCCS3(=O)=O)cc12 [Compound 41, 2-(1H-benzimidazol-1-yl)-N-[5-(1,1-dioxo-1λ^6-isothiazolidin-2-yl)-1H-indazol-3-yl]acetamide]"
12,< 50,"CCOc1ccc(CC(=O)Nc2n[nH]c3ccc(N4CCCS4(=O)=O)cc23)cc1 [Compound 42, N-[5-(1,1-dioxo-1λ^6-isothiazolidin-2-yl)-1H-indazol-3-yl]-2-(4-ethoxyphenyl)acetamide]"
13,< 100,"O=C(Cc1ccc(CN2CCOCC2)cc1)Nc1n[nH]c2ccc(N3CCCS3(=O)=O)cc12 [Compound 43, N-[5-(1,1-dioxo-1λ^6-isothiazolidin-2-yl)-1H-indazol-3-yl]-2-[4-(4-morpholinylmethyl)phenyl]acetamide]"
14,< 50,"O=C(Cc1ccc([N+](=O)[O-])cc1)Nc1n[nH]c2ccc(N3CCCS3(=O)=O)cc12 [Compound 45, N-[5-(1,1-dioxo-1λ^6-isothiazolidin-2-yl)-1H-indazol-3-yl]-2-(4-nitrophenyl)acetamide]"
15,< 1000,"O=C(Cc1ccc(Cn2ccnc2)cc1)Nc1n[nH]c2ccc(N3CCCS3(=O)=O)cc12 [Compound 46, N-[5-(1,1-dioxo-1λ^6-isothiazolidin-2-yl)-1H-indazol-3-yl]-2-[4-(1H-imidazole-1-ylmethyl)phenyl]acetamide]"
16,< 50,"O=C(Cn1cnc(-c2ccccc2)c1)Nc1n[nH]c2ccc(N3CCCS3(=O)=O)cc12 [Compound 47, N-[5-(1,1-dioxo-1λ^6-isothiazolidin-2-yl)-1H-indazol-3-yl]-2-(4-phenyl-1H-imidazol-1-yl)acetamide]"
17,< 1000,"O=C(CN1CCc2ccccc2C1)Nc1n[nH]c2ccc(N3CCCS3(=O)=O)cc12 [Compound 49, 2-[3,4-dihydro-2(1H)-isoquinolinyl]-N-[5-(1,1-dioxo-1λ^6-isothiazolidin-2-yl)-1H-indazol-3-yl]acetamide]"
18,< 10000,"COc1ccc(N2CCN(CC(=O)Nc3n[nH]c4ccc(N5CCCS5(=O)=O)cc34)CC2)cc1 [Compound 51, N-[5-(1,1-dioxo-1λ^6-isothiazolidin-2-yl)-1H-indazol-3-yl]-2-[4-(4-methoxyphenyl)-1-piperazinyl]acetamide]"
19,< 10000,"CCOc1ccccc1N1CCN(CC(=O)Nc2n[nH]c3ccc(N4CCCS4(=O)=O)cc23)CC1 [Compound 52, N-[5-(1,1-dioxo-1λ^6-isothiazolidin-2-yl)-1H-indazol-3-yl]-2-[4-(2-ethoxyphenyl)-1-piperazinyl]acetamide]"
20,< 10000,"CC(=O)c1ccc(N2CCN(CC(=O)Nc3n[nH]c4ccc(N5CCCS5(=O)=O)cc34)CC2)cc1 [Compound 53, 2-[4-(4-acetylphenyl)-1-piperazinyl]-N-[5-(1,1-dioxo-1λ^6-isothiazolidin-2-yl)-1H-indazol-3-yl]acetamide]"
21,< 100,"O=C(Cc1ccc(Oc2ccccc2)cc1)Nc1n[nH]c2ccc(N3CCCS3(=O)=O)cc12 [Compound 54, N-[5-(1,1-dioxo-1λ^6-isothiazolidin-2-yl)-1H-indazol-3-yl]-2-(4-phenoxyphenyl)acetamide]"
22,< 100000,"O=C(Nc1n[nH]c2ccc(N3CCCS3(=O)=O)cc12)C1(c2ccccc2)CCCC1 [Compound 55, N-[5-(1,1-dioxo-1λ^6-isothiazolidin-2-yl)-1H-indazol-3-yl]-1-phenylcyclopentanecarboxamide]"
23,< 100000,"O=C(Nc1n[nH]c2ccc(N3CCCS3(=O)=O)cc12)C(c1ccccc1)C1CCCC1 (stereo not drawn) [Compound 56, 2-cyclopentyl-N-[5-(1,1-dioxo-1λ^6-isothiazolidin-2-yl)-1H-indazol-3-yl]-2-phenylacetamide]"
24,< 100000,"CCC(C(=O)Nc1n[nH]c2ccc(N3CCCS3(=O)=O)cc12)c1ccccc1 (stereo not drawn) [Compound 57, N-[5-(1,1-dioxo-1λ^6-isothiazolidin-2-yl)-1H-indazol-3-yl]-2-phenylbutanamide]"
25,< 100,"CC(C)(C)OC(=O)Nc1nc(CC(=O)Nc2n[nH]c3ccc(N4CCCS4(=O)=O)cc23)cs1 [Compound 58, t-butyl 4-(2-[5-(1,1-dioxo-1λ^6-isothiazolidin-2-yl)-1H-indazol-3-yl]amino-2-oxoethyl)-1,3-thiazol-2-ylcarbamate]"
26,< 100,"CCOCCOCCOc1ccc(CC(=O)Nc2n[nH]c3ccc(N4CCCS4(=O)=O)cc23)cc1 [Compound 59, N-[5-(1,1-dioxo-1λ^6-isothiazolidin-2-yl)-1H-indazol-3-yl]-2-4-[2-(2-ethoxyethoxy)ethoxy]phenylacetamide]"
27,< 500,"Nc1nc(CC(=O)Nc2n[nH]c3ccc(N4CCCS4(=O)=O)cc23)cs1 [Compound 60, 2-(2-amino-1,3-thiazol-4-yl)-N-[5-(1,1-dioxo-1λ^6-isothiazolidin-2-yl)-1H-indazol-3-yl]acetamide]"
